From patent US20200138921A1, “METHODS OF PREVENTING AND TREATING DISEASES CHARACTERIZED BY SYNAPTIC DYSFUNCTION AND NEURODEGENERATION INCLUDING ALZHEIMER'S DISEASE” (The Trustees of Columbia University in the City of New York, priority 2017, published 2020)

What was measured:
[1] = tested on: primary hippocampal neurons; assay: Dendritic spine density in cultured hippocampal neurons (DiOlistic labeling); assay type: cell-based, rat; conditions: oAβ for 24 hours
Protocol: The protocol for diolistic labeling of neurons was adapted from Gan et al. 2000 and Gan et al. 2009. Briefly, 100 mg of tungsten particles (1.1 μm diameter; Bio-Rad) were thoroughly precipitated with 5.0 mg of lipophilic dye (DiI; ThermoFisher) and dissolved in 100 μl of methylene chloride. Dye-coated particles were shot 2-3 times into the cells using the Helios gene gun system (Bio-Rad) and left in 0.1 M PBS overnight to allow dye diffusion along neuronal processes. Cells were post-fixed with 4% paraformaldehyde (Pierce) for 1 hour to preserve staining, then mounted onto glass slides using Gel Mount (Biomeda) and stored at 4° C. in the dark.
Labeled neurons were imaged using the Laser Scanning Microscope (LSM) 510 Meta confocal microscope (Zeiss), equipped with 40×1.3 NA and 100×1.4 NA oil-immersion objectives. The NIH Image software program ImageJ was used the quantify diolistic-labeled cultured neurons. An average of 12 compressed images (20 μm thick) consisting of pyramidal neurons were quantified for each treatment. Spines were counted with NeuronStudio software in a blinded manner and spine density was represented in number of spine per μm dendritic length. Statistical analysis was performed using the statistics package GraphPad Prism.
To further test whether increasing Ube3A could rescue the effects of oAβ, cultured primary hippocampal neurons (14 DIV) were pretreated with 300 nM of TOP or control PBS. The neurons were then treated with oAβ for 24 hours, and whole cell lysates prepared for Western blot analysis, or fixed for microscopy.

RhoA-GTP = assay: Rho-GTPase activity pull-down assay in hippocampal neurons; assay type: cell-based, rat
Protocol: Rho-GTPase pull-down assays were performed following the manufacturer's protocol (Cytoskeleton, Inc.). Briefly, cells were washed once with ice-cold PBS and lysed with RIPA/M-PER buffer (1:1; ThermoFisher). Lysates were incubated on ice for 5 minutes, and centrifuged (12,000 g) for 5 minutes. 30 μl was used for input and the remaining lysates were incubated with Rhotekin-RBD (RhoA) or PAK-RBD (Rac1) protein beads (25 μl) by rotating for 1 hour at 4° C. Beads were washed with ice-cold PBS (500 μl, 3×) and collected, and bound proteins were eluted with 1× sample buffer (30 μl). Input and eluted samples were then analyzed by gel electrophoresis and Western blotting using either a RhoA or Rac1-specific antibody.
To test whether increasing Ube3A could rescue the effects of oAβ, cultured primary hippocampal neurons (14 DIV) were pretreated with 300 nM of TOP or control PBS. At day 3 the cells were treated with oligomeric Aβ for 6 hours and whole cell lysates prepared for Western blot analysis of Ube3A protein levels and levels of active GTPase levels including RhoA-GTP, Rac1-GTP and Cdc42-GTP.

Ephexin-5 = assay: Western blot of Ephexin-5 in cultured primary hippocampal neurons; assay type: cell-based, rat
Protocol: (§1) Hippocampal neuron cultures from both male and female rat embryos (E17-18) were prepared following a slightly modified version of the method of Brewer et al. 1996. Hippocampal neurons were kept in culture at 37° C. with 5% CO2 in Neurobasal medium (ThermoFisher) with B27 (ThermoFisher) supplement and Glutamax (ThermoFisher) and plated at a density of 2.5×10^5 cell/ml on dishes coated with poly-D-lysine (ThermoFisher). For the experiments, neurons were used after 14-21 days in vitro (DIV). Rat neuroblastoma B35 cells were cultured and maintained in DMEM (ThermoFisher) supplemented with 10% fetal bovine serum (FBS; Invitrogen) and Glutamax (ThermoFisher).
(§2) Whole frozen mouse hippocampi, human brain specimens, and cultured cells were homogenized in RIPA buffer (ThermoFisher) supplemented with protease and phosphatase inhibitor cocktail (ThermoFisher), using a Teflon dounce homogenizer and centrifuged at 14,000 rpm for 10 minutes at 4° C. Supernatants were collected, normalized by BCA assay (ThermoFisher), and prepared for loading using sample buffer (SB) 4× (ThermoFisher) and dithiothreitol (DTT) 10× (ThermoFisher).
(§3) Cultured primary hippocampal neurons (14 DIV) were treated with 300 nM of a topoisomerase type I inhibitor, topotecan (TOP) or a vehicle control as described in Huang et al. 2012. Some cells were treated for 24 hours and some for 72 hours. All cells were harvested and whole cell lysates prepared for Western blot analysis of Ube3A and Ephixin-5.

Ube3A [2] = assay: Western blot of Ube3A protein in cultured primary hippocampal neurons; assay type: cell-based, rat
Protocol: as §1, §2, §3

Ube3A [3] = assay: Ube3A protein in hippocampus of wild-type mice after a single TOP injection; assay type: in vivo; conditions: single bilateral hippocampal injection of TOP 275 μg
Protocol: as §2
Controls were wild type mice injected with PBS.

[4] = tested on: primary hippocampal neurons; assay type: cell-based, rat; conditions: neurons 21 DIV, oAβ for 24 hours (data not shown)
EphB2 = assay: Western blot of surface expressed EphB2 in hippocampal neurons; assay type: cell-based, rat; conditions: oAβ treated
Protocol: Enriched primary rat hippocampal neurons, cultured for 21 days in vitro, were treated with synthetic soluble oligomeric Aβ1-42 (hereinafter “oAβ”) for 24 hours. No cell death was detected under these conditions (data not shown).
Since Ube3A is also expressed in astrocytes (Grier et al. 2015), it was determined whether Ube3A levels were also altered in these cells.

Ephexin-1 = assay: Levels or activities of Ephexin-1 in hippocampal neurons; assay type: cell-based, rat; conditions: hippocampal neurons treated with oAβ (results not shown)
Ube3A [5] = assay: Ube3A protein degradation in B35 cells (cycloheximide chase); assay type: cell-based, rat; conditions: CHX and oAβ for 4, 8 and 16 hours
Protocol: FIG. 5A is a graph showing the quantification of Western blots of the levels of Ube3A and GAPDH (as house-keeping protein) of B35 cells treated with cycloheximide (CHX) or CHX and oAβ for 4, 8 and 16 hours. […] Graphs represent mean values and standard deviation. Significance determined by one-way ANOVA followed by Tukey Post Hoc multiple comparisons.

[6] = neurons pretreated with 300 nM TOP, oligomeric Aβ for 6 hours at day 3
[7] = neurons 21 DIV, oAβ for 24 hours

In the case of `CC[C@@]1(O)C(=O)OCc2c1cc1n(c2=O)Cc2cc3c(CN(C)C)c(O)ccc3nc2-1` [TOP, topotecan], the “protection against oAβ-induced loss of dendritic spine density” value ([1]; neurons pretreated with 300 nM TOP) was “complete protection”, the RhoA activity (RhoA-GTP; [6]) was “decreased” and the Ephexin-5 level (Ephexin-5; neurons 14 DIV, 300 nM TOP, vs vehicle) was “significant decrease”. For the same molecule, the Ube3A protein levels (Ube3A [2]; neurons 14 DIV, 300 nM TOP, 24 or 72 hours, vs vehicle) was “increased as early as 24 hours and persisted up to three days”, the Ube3A protein levels (Ube3A [2]; [6]) was “increased” and the “persistence of increased Ube3A expression after the single injection” value (Ube3A [3]) was “up to 5 months”. For the same molecule, the “Ube3A expression in the hippocampus” value (Ube3A [3]; after 1 month) was “sustained increase”.

For “oAβ: synthetic soluble oligomeric Aβ1-42”, the cell death [4] was “No cell death”, the “levels of surface expressed EphB2 protein” value (EphB2) was “decrease” and the “levels or activities of Ephexin-1” value (Ephexin-1) was “no observation of any differences”. For the same molecule, the dendritic spine density ([1]; neurons 21 DIV) was “significant decrease”, the “levels of active RhoA-GTP” value (RhoA-GTP; [7]) was “significant increase” and the “levels of Ephexin-5 protein” value (Ephexin-5; hippocampal neurons, Aβ for 8-10 hours) was “significant increase”. For the same molecule, the “degradation rate of the Ube3A protein” value (Ube3A [5]) was “significantly increased” and the “levels of Ube3A protein” value (Ube3A [2]; [7]) was “significant decrease”.
